Assays:
MMP2 = target: T1, MMP2 (Homo sapiens, UniProt P08253); assay: MMP2 fluorogenic peptide biochemical assay
T1 construct: purchased R&D Systems 902-MP
T1 sequence (P08253 110-660): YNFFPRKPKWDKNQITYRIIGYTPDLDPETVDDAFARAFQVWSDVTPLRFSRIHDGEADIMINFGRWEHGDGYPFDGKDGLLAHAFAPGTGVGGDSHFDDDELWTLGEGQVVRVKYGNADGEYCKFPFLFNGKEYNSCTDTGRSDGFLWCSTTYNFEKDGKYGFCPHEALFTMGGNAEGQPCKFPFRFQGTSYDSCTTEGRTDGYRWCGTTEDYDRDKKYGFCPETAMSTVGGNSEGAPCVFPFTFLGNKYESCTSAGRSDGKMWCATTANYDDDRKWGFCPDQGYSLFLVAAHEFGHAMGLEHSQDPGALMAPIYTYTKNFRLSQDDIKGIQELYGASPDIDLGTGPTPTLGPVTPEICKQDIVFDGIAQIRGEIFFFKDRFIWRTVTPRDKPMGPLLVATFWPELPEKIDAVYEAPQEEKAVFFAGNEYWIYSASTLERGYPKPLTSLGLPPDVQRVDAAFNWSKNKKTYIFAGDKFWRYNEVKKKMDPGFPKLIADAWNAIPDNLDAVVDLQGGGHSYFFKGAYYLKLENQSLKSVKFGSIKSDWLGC
Method: Biochemical Assays: In general, assay buffer conditions were chosen based on obtaining optimal enzymatic activities. The specific assay buffer conditions are summarized as following. For MMP1, MMP2, MMP3, MMP7, and MMP12, the assay buffer contains 50 mM Tricine, 10 mM NaCl, 10 mM CaCl2, 1.0 mM ZnCl2, pH 7.4.
To activate MMP enzymes, 10 or 20 μg of lyophilized Pro-MMPs are dissolved in 100 μL of water. 100 mM p-aminophenylmercuric acetate (APMA) stock in DMSO is added to Pro-MMPs to give 1.0 mM final concentration. Incubate enzyme with APMA at 37° C. for a period time specified below.

MMP12 = MMP12 (Homo sapiens, UniProt P39900); assay: MMP12 fluorogenic peptide biochemical assay
Sequence of MMP12 (P39900 106-470): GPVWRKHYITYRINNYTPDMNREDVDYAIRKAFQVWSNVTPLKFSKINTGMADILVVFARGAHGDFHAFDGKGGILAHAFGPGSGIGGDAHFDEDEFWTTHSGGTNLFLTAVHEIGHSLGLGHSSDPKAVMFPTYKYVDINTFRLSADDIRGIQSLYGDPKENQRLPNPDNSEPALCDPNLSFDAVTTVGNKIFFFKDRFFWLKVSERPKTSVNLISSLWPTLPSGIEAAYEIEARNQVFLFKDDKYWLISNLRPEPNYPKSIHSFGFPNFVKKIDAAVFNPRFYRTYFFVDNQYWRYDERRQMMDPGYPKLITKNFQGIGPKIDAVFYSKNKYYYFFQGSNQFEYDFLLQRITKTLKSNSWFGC
Excerpt: (§1) Source of enzymes for biochemical assays: Except for ADAM17 and MT1-MMP, all recombinant human MMPs and ADAMs were obtained from R&D Systems (Minneapolis, Minn.). […] MT1-MMP was obtained from US Biological (Swampscott, Mass.) with a catalog number of M2429. Porcine ADAM17 was purified in house from porcine spleen.
(§2) Substrates for biochemical assays: Fluorogenic Peptide substrate, (7-methoxycoumarin-4-yl)acetyl-Pro-Leu-Gly-Leu-(3-[2,4-dinitrophenyl]-L-2,3-diaminopropionyl)-Ala-Arg-NH2 (SEQ ID NO: 46), was obtained from R&D Systems (Minneapolis, Minn.) with a catalog number of ES001. It was used as substrate for MMP1, MMP2, MMP7, MMP8, MMP9, MMP12, MMP13, and MT1-MMP. Fluorogenic Peptide substrate, (7-methoxycoumarin-4-yl)acetyl-Arg-Pro-Lys-Pro-Val-Glu-Nva-Trp-Arg-Lys(2,4-dinitrophenyl)-NH2 (SEQ ID NO: 47), was obtained from R&D Systems with a catalog number of ES002. It was used as substrate for MMP3 and MMP10. […]
(§3) In general, 5 mM compound stock was prepared in DMSO. […] The plate was read on a plate reader with excitation of 320 nm and emission of 405 nm. Percentage of inhibition was calculated for each concentration and IC50 value was generated from curve fitting. […]

MMP3 = target: T2, MMP3 (Homo sapiens, UniProt P08254); assay: MMP3 fluorogenic peptide biochemical assay
T2 construct: purchased R&D Systems 513-MP
T2 sequence (P08254 100-477): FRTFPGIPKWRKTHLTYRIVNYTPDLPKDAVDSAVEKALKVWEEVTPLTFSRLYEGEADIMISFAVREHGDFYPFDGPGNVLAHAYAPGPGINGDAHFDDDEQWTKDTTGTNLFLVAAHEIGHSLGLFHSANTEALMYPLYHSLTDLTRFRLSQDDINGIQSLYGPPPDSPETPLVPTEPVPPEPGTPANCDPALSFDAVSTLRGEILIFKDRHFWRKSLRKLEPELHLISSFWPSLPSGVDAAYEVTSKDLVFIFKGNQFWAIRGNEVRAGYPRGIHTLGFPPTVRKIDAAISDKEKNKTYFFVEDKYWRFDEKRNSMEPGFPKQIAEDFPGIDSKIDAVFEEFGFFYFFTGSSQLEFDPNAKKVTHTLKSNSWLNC
Excerpt: as §1, §2, §3

For Cc1cc([N+](=O)[O-])ccc1N1CCN(C(=O)[C@@H]2[C@@H](C(=O)NO)CC3(CC3)CN2C)CC1 [Compound 5, (6S,7S)-N-hydroxy-5-methyl-6-{[4-(2-methyl-4-nitrophenyl)piperazin-1-yl]-carbonyl}-5-azaspiro[2.5]octane-7-carboxamide], the MMP2 activity (MMP2) was “inactive”, the IC50 (MMP12) was 584 nM and the MMP3 activity (MMP3) was “inactive”.
